From patent US9676715B2, “Bis-indolic derivatives, a process for preparing the same and their uses as a drug” (UNIVERSITE JOSEPH FOURIER, priority 2011, dated 2017)
In brackets after ≈: the same amount, converted by molar mass.

Legend:
[1] = test system: S. epidermidis CIP 103627; assay: MIC, microdilution method (9.1); assay type: cell-based, Staphylococcus epidermidis; settings: Staphylococcus epidermidis, CIP103627, read after 18 h, read-out: MIC
Method: (§1) The microdilution method recommended by the Clinical and Laboratory Standard Institute [M07-A8, Vol. 29, No. 2] was used. The activity of indolic compounds was tested against 29 bacterial strains belonging to 17 different species and 12 different genera (Staphylococcus, Streptococcus, Enterococcus, Listeria, Bacillus, Haemophilus, Escherichia, Klebsiella, Enterobacter, Serratia, Pseudomonas, and Acinetobacter). Bacterial inocula were prepared in Mueller Hinton broth (MH2, bioMérieux, Marcy L'Etoile, France), supplemented with 10% sheep blood for fastidious species (i.e., Streptococcus pneumoniae and Haemophilus influenzae). They were dispensed in 96 well microtiter plates (5×10^5 CFU/ml of final inoculum). Indolic compounds were added to the wells as to obtain two-fold serial concentrations (0.50-128 mg/L of final concentrations). Plates were incubated at 37° C. in ambient air, or at 37° C. in 5% CO2 enriched atmosphere for fastidious species. […] Drug-free cultures served as growth controls. Cultures receiving gentamicin, ciprofloxacin or cefotaxime served as positive controls.

[2] = test system: S. epidermidis ATCC 12228; assay: MIC, microdilution method (9.1); assay type: cell-based, Staphylococcus epidermidis; settings: Staphylococcus epidermidis, ATCC12228, read after 18 h, read-out: MIC
Method: as §1

S. epidermidis CIP 81.55 = assay: MIC, microdilution method (9.1); assay type: cell-based, Staphylococcus epidermidis; settings: Staphylococcus epidermidis, CIP81, read after 18 h, read-out: MIC
Method: as §1

[3] = test system: MRC5 (human lung fibroblast); assay: In vitro cytotoxicity; assay type: cell-based; settings: read-out: % of cellular growth inhibition
Method: (§2) In vitro cytotoxicity was assayed on three cell lines—KB (human mouth carcinoma), MCR5 (human lung fibroblast) and HCT116 (human colon tumor). Results are presented in table IV as % of cellular growth inhibition in presence of 10^−5 M and 10^−6 M of the tested bis-indolic derivatives.

[4] = test system: HCT116 (human colon tumor); assay: In vitro cytotoxicity; assay type: cell-based; settings: read-out: % of cellular growth inhibition
Method: as §2

[5] = test system: KB (human mouth carcinoma); assay: In vitro cytotoxicity; assay type: cell-based; settings: read-out: % of cellular growth inhibition
Method: as §2

S. pneumoniae ATCC 6303 = assay: MIC, microdilution method (9.1); assay type: cell-based, Streptococcus pneumoniae; settings: Streptococcus pneumoniae, ATCC6303, 10% sheep blood, 5% CO2, 18 h, read-out: MIC
Method: as §1

[6] = test system: S. agalactiae (group B) ATCC 12400; assay: MIC, microdilution method (9.1); assay type: cell-based, Streptococcus agalactiae; settings: Streptococcus agalactiae, ATCC12400, 18 h, read-out: MIC
Method: as §1

[7] = test system: S. pyogenes (group A) CIP 104226; assay: MIC, microdilution method (9.1); assay type: cell-based, Streptococcus pyogenes; settings: Streptococcus pyogenes, CIP104226, 18 h, read-out: MIC
Method: as §1

[8] = test system: HCT116 (human colon tumor); assay: In vitro cytotoxicity; assay type: cell-based; settings: HCT-116, HCT116, from 100 μM to 0.005 μM in DMSO, duplicate
E. faecium CIP 54.32 = assay: MIC, microdilution method (9.1); assay type: cell-based, Enterococcus faecium; settings: Enterococcus faecium, CIP54, 18 h, read-out: MIC
Method: as §1

E. faecalis ATCC 29212 = assay: MIC, microdilution method (9.1); assay type: cell-based, Enterococcus faecalis; settings: Enterococcus faecalis, ATCC29212, 18 h, read-out: MIC
Method: as §1

S. mitis CIP 103335 = assay: MIC, microdilution method (9.1); assay type: cell-based, Streptococcus mitis; settings: Streptococcus mitis, CIP103335, 18 h, read-out: MIC
Method: as §1

[9] = test system: Haemophilus influenzae ATCC 49766; assay: MIC, microdilution method (9.1); assay type: cell-based; settings: ATCC49766; Haemophilus influenzae ATCC 49766; 10% sheep blood, 5% CO2; 18 h; read-out: MIC
Method: as §1

[10] = test system: Enterobacter cloacae ATCC13047; assay: MIC, microdilution method (9.1); assay type: cell-based; settings: 18 h
Method: as §1

[11] = test system: Serratia marcescens CIP 103551; assay: MIC, microdilution method (9.1); assay type: cell-based; settings: CIP103551, 18 h
Method: as §1

[12] = test system: Klebsiella pneumoniae API ATCC 35657; assay: MIC, microdilution method (9.1); assay type: cell-based; settings: ATCC35657, 18 h, read-out: MIC
Method: as §1

[13] = test system: Escherichia coli ATCC 25922; assay: MIC, microdilution method (9.1); assay type: cell-based; settings: ATCC25922, 18 h
Method: as §1

[14] = test system: Listeria innocua CIP 80.11; assay: MIC, microdilution method (9.1); assay type: cell-based; settings: CIP80, 18 h, read-out: MIC
Method: as §1

[15] = test system: Acinetobacter baumanii ATCC 19606; assay: MIC, microdilution method (9.1); assay type: cell-based; settings: Acinetobacter baumannii, ATCC19606, 18 h, read-out: MIC
Method: as §1

S. pneumoniae ATCC 49619 = assay: MIC, microdilution method (9.1); assay type: cell-based; settings: Streptococcus pneumoniae, ATCC49619, 10% sheep blood, 5% CO2, 18 h
Method: as §1

[16] = test system: Bacillus subtilis CIP 5262; assay: MIC, microdilution method (9.1); assay type: cell-based; settings: CIP5262, 18 h, read-out: MIC
Method: as §1

[17] = test system: Pseudomonas aeruginosa CIP 5933; assay: MIC, microdilution method (9.1); assay type: cell-based; settings: CIP5933, 18 h, read-out: MIC
Method: as §1

[18] = test system: S. aureus ATCC 106414 (VISA); assay: MIC, microdilution method (9.1); assay type: cell-based, Staphylococcus aureus; settings: Staphylococcus aureus, read after 18 h, read-out: MIC
Method: as §1

S. aureus ATCC 25923 = assay: MIC, microdilution method (9.1); assay type: cell-based, Staphylococcus aureus; settings: Staphylococcus aureus, ATCC25923, read after 18 h, read-out: MIC
Method: as §1

S. aureus SA-1199B = assay: MIC, microdilution method (9.1); assay type: cell-based, Staphylococcus aureus; settings: Staphylococcus aureus, SA1199B, 18 h
Method: as §1

[19] = test system: S. aureus ATCC 33592 (MRSA); assay: MIC, microdilution method (9.1); assay type: cell-based, Staphylococcus aureus; settings: Staphylococcus aureus, read after 18 h, read-out: MIC
Method: as §1

S. aureus ATCC 9144 = assay: MIC, microdilution method (9.1); assay type: cell-based, Staphylococcus aureus; settings: Staphylococcus aureus, ATCC9144, read after 18 h, read-out: MIC
Method: as §1

S. aureus CIP 65.6 = assay: MIC, microdilution method (9.1); assay type: cell-based, Staphylococcus aureus; settings: Staphylococcus aureus, CIP65, read after 18 h, read-out: MIC
Method: as §1

[20] = test system: S. aureus CIP 65.25 (MRSA); assay: MIC, microdilution method (9.1); assay type: cell-based, Staphylococcus aureus; settings: Staphylococcus aureus, read after 18 h, read-out: MIC
Method: as §1

S. aureus ATCC 6538 = assay: MIC, microdilution method (9.1); assay type: cell-based, Staphylococcus aureus; settings: Staphylococcus aureus, ATCC6538, read after 18 h, read-out: MIC
Method: as §1

S. aureus ATCC 29213 = assay: MIC, microdilution method (9.1); assay type: cell-based, Staphylococcus aureus; settings: Staphylococcus aureus, ATCC29213, read after 18 h, read-out: MIC
Method: as §1

S. aureus CIP 103428 = assay: MIC, microdilution method (9.1); assay type: cell-based, Staphylococcus aureus; settings: Staphylococcus aureus, CIP103428, read after 18 h, read-out: MIC
Method: as §1

## CC(C)(C)OC(=O)NCC(NC(=O)c1c[nH]c2ccc(Cl)cc12)c1c[nH]c2ccc(Cl)cc12 (stereo not shown) [Compound 6a, tert-Butyl 2-(5-chloro-1H-indol-3-yl)-2-(5-chloro-1H-indole-3-carboxamido)ethylcarbamate]
[1]
  MIC: 4 µg/mL (≈ 8.21 µM)
[2]
  MIC: 4 µg/mL (≈ 8.21 µM)
S. epidermidis CIP 81.55
  MIC: 4 µg/mL (≈ 8.21 µM)
[3]; 10^−5 M
  inhibition at 10 µM: 82 ± 4%
[3]; 10^−6 M
  inhibition at 1 µM: 0%
[4]; HCT-116, 10^−5 M
  inhibition at 10 µM: 80 ± 9%
[4]; HCT-116, 10^−6 M
  inhibition at 1 µM: 0%
[5]; 10^−5 M
  inhibition at 10 µM: 87 ± 6%
[5]; 10^−6 M
  inhibition at 1 µM: 4%
S. pneumoniae ATCC 6303
  MIC: 32 µg/mL (≈ 65.7 µM)
[6]
  MIC: 64 µg/mL (≈ 131 µM)
[7]
  MIC: 64 µg/mL (≈ 131 µM)
[8]; first value
  IC50: 4.35 µM
[8]; second value
  IC50: 3.79 µM
E. faecium CIP 54.32
  MIC: > 128 µg/mL
E. faecalis ATCC 29212
  MIC: > 128 µg/mL
S. mitis CIP 103335
  MIC: 64 µg/mL (≈ 131 µM)
[9]
  MIC: > 128 µg/mL
[10]
  MIC: > 128 µg/mL
[11]
  MIC: > 128 µg/mL
[12]
  MIC: > 128 µg/mL
[13]
  MIC: > 128 µg/mL
[14]
  MIC: > 128 µg/mL
[15]
  MIC: > 128 µg/mL
S. pneumoniae ATCC 49619
  MIC: 64 µg/mL (≈ 131 µM)
[16]
  MIC: 64 µg/mL (≈ 131 µM)
[17]
  MIC: > 128 µg/mL
[18]
  MIC: 4 µg/mL (≈ 8.21 µM)
S. aureus ATCC 25923
  MIC: 4 µg/mL (≈ 8.21 µM)
S. aureus SA-1199B
  MIC: 4 µg/mL (≈ 8.21 µM)
[19]
  MIC: 4 µg/mL (≈ 8.21 µM)
S. aureus ATCC 9144
  MIC: 4 µg/mL (≈ 8.21 µM)
S. aureus CIP 65.6
  MIC: 4 µg/mL (≈ 8.21 µM)
[20]
  MIC: 4 µg/mL (≈ 8.21 µM)
S. aureus ATCC 6538
  MIC: 4 µg/mL (≈ 8.21 µM)
S. aureus ATCC 29213
  MIC: ≤ 2 µg/mL
S. aureus CIP 103428
  MIC: 4 µg/mL (≈ 8.21 µM)
